Laboratory results from PubChem BioAssay (NCI).
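In this assay, cells in 96-well plates receive the compound at five concentrations for 48 hours. Endpoints are linearly interpolated between the surrounding concentrations. GI50 = concentration required for 50% inhibition of growth. TGI marks complete inhibition of growth.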

Experiments:
Test in all cases: NCI tumour cell line growth inhibition, 48 h
LXFL 529 NSCLC = tested on: LXFL 529 NSCLC
HOP-18 NSCLC = tested on: HOP-18 NSCLC
PC-3 prostate = tested on: PC-3 prostate
HS 578T breast = tested on: HS 578T breast
P388/ADR leukemia = tested on: P388/ADR leukemia
SN12K1 renal = tested on: SN12K1 renal
P388 leukemia = tested on: P388 leukemia
MDA-N = tested on: MDA-N

| Structure (SMILES) | TGI (LXFL 529 NSCLC) | TGI (HOP-18 NSCLC) | TGI (PC-3 prostate) | TGI (HS 578T breast) | other results |
| --- | --- | --- | --- | --- | --- |
| CN1C2C=C(c3ccccc3)CC1CC2 (configuration not stated) | > 100 µM | > 100 µM | – | – | – |
| CCOc1ccc(/C=C/[N+](=O)[O-])cc1 | – | – | 33.7 µM | > 100 µM | GI50 (PC-3 prostate): 12.4 µM; GI50 (HS 578T breast): 35.3 µM |
| O=C1Nc2ccccc2Nc2nc3cccccc-3c21 | > 100 µM | – | – | – | – |
| CC1(C)CCc2cc3c(-c4ccccc4)cc(=O)oc3cc2O1 | > 100 µM | > 100 µM | – | – | – |
| [C-]#[O+].[Cl][Sn]([Cl])[Cl].[Cl][Sn]([Cl])[Cl].[Pt].c1ccncc1 | – | – | – | – | GI50 (P388/ADR leukemia): 35.4 µM; TGI (P388/ADR leukemia): > 100 µM; GI50 (SN12K1 renal): > 75.6 µM; TGI (SN12K1 renal): > 100 µM; GI50 (P388 leukemia): 33.4 µM; TGI (P388 leukemia): > 100 µM |
| c1ccc2c(c1)nc1n2CSC1 | > 100 µM | > 100 µM | – | – | – |
| O=C(Nc1ccc(Cl)cc1)/C(Cc1cccc[n+]1[O-])=N\Nc1ccc([N+](=O)[O-])cc1[N+](=O)[O-] | > 100 µM | – | – | – | – |
| CC(C)=CC(=O)OC1C2C(C)C(=O)OC2C(O)C(C)C2C=CC(=O)C21C (configuration not stated) | – | 11.2 µM | – | – | TGI (P388/ADR leukemia): 4.01 µM; TGI (SN12K1 renal): 6.28 µM; TGI (P388 leukemia): 1.29 µM |
| O=C(Nc1nc2ccc([N+](=O)[O-])cc2[n+]([O-])n1)C(F)(F)F | – | – | > 100 µM | – | TGI (MDA-N): 34 µM |
| CCOP(=O)(OCC)C(Cc1ccc(OC)c(OC)c1)N=C(c1ccccc1)c1ccccc1 (configuration not stated) | – | – | > 100 µM | – | TGI (MDA-N): > 100 µM |
| Cc1nc2ccccc2c(=O)n1CC(=O)O | – | > 100 µM | – | – | TGI (P388/ADR leukemia): > 100 µM; TGI (SN12K1 renal): > 100 µM; TGI (P388 leukemia): > 100 µM |
| Cc1cccc2c(N)c3cccc(C(=O)NCCN(C)C)c3nc12 | – | – | 0.357 µM | – | – |
| C[C@]12C=CC(=O)C=C1CC[C@@H]1[C@@H]2C(=O)C[C@@]2(C)[C@H]1CC[C@]2(O)C(=O)CO | – | – | > 100 µM | > 100 µM | TGI (MDA-N): > 100 µM |
| CCN(CC)CCCC(Nc1c2ccc(Cl)cc2nc2ccc(OC)cc12)c1ccc(F)cc1 (configuration not stated) | – | – | 9.22 µM | 4.17 µM | GI50 (PC-3 prostate): 2.7 µM; GI50 (HS 578T breast): 1.69 µM |
| O=C(O)c1cc(=O)[nH]c(=S)[nH]1 | – | – | > 100 µM | > 100 µM | TGI (MDA-N): > 100 µM |
| CC[C@@H](C(=O)[C@@H](C)[C@@H](O)[C@H](C)CCc1ccc(C)c(O)c1C(=O)O)[C@H]1O[C@](CC)([C@H]2CC[C@](O)(CC)[C@H](C)O2)C[C@@H]1C | 4.94 µM | 13.1 µM | – | – | – |
| COc1c2c(cc3c(CCc4ccccc4)cc(=O)oc13)CCC(C)(C)O2 | > 100 µM | – | – | – | – |
| Cc1ccc(/C(=C/C=C(C#N)C#N)Sc2cc(Cl)ccc2Cl)cc1 | – | – | – | 9.23 µM | – |
| CC(C)=CCc1c(C)cc2cc3c(c(O)c2c1O)C(O)=CC(=O)C3(CC=C(C)C)C/C=C(\C)CO (configuration not stated) | – | 35.3 µM | – | – | TGI (P388/ADR leukemia): 80 µM; TGI (SN12K1 renal): 62 µM; TGI (P388 leukemia): 101 µM |
| CCCCN(CCCC)CCCCNc1c(C)cnc2cc(Cl)ccc12 | > 100 µM | > 100 µM | – | – | – |
| CCOc1ccc2c(ccc(/C=C\c3cc(C)c4cccnc4c3O)[n+]2C)c1 | 14 µM | 7.49 µM | 6.14 µM | > 100 µM | – |
| Cc1ccc(S(=O)(=O)Oc2cc(S(=O)(=O)O)cc3cc(S(=O)(=O)O)cc(N)c23)cc1 | – | – | > 100 µM | > 100 µM | TGI (MDA-N): > 100 µM |
| CC1=C[C@]2(CC(C)C3C(CC4(C)C5CCC6C(C)(C)C(=O)CC[C@@]67C[C@@]57CC[C@]34C)O2)OC1=O (some centres not stated) | > 100 µM | > 100 µM | – | – | – |
| COc1cc2c3c(n(CCN(C)C)c(=O)c2cc1OC)-c1cc2c(cc1C3=O)OCO2 | – | – | > 100 µM | > 100 µM | GI50 (PC-3 prostate): 31.4 µM; GI50 (HS 578T breast): > 84.9 µM |
| CO/N=C1/c2sccc2[C@H](NC(=O)C(F)(F)F)[C@@H]1O | – | – | > 100 µM | > 100 µM | TGI (MDA-N): > 100 µM |
